Laboratory results as given in ChEMBL document CHEMBL3885861, “Open TG-GATES”.

Species on record: Rattus norvegicus
Assay: Open TG-GATES - Regimen: Single
Format: toxicity, organism-based, Sprague-Dawley
Design: regimen Single, gender Male, age 6 weeks
Settings: in vivo, po, 1000 mg/kg, route gavage, dose level High; for APTT / Bas / Eos / Fbg / Hb / Ht / Lym / MCH / MCHC / MCV / Mono / Neu / PT / Plat / RBC / Ret / WBC: tissue Blood; for KIDNEY_L / KIDNEY_R / KIDNEY_TOTAL: tissue Kidney; for LIVER: tissue Liver; for A/G / ALP / ALT / AST / BUN / CRE / Ca / Cl / DBIL / GLC / IP / K / LDH / Na / PL / RALB / TBIL / TC / TG / TP / gamma-GTP: tissue Plasma

Structure (SMILES): C[C@H]1O[C@H](O[C@H]2[C@H](O)[C@@H](O)[C@@H](O[C@H]3[C@H](O)[C@@H](O)C(O)O[C@@H]3CO)O[C@@H]2CO)[C@H](O)[C@@H](O)[C@@H]1N[C@H]1C=C(CO)[C@@H](O)[C@H](O)[C@H]1O (some centres not stated) [ACARBOSE]
- TERMINAL_BW (3 h): 197.2 g
- APTT (3 h): 17.5 s
- Bas (3 h): 0%
- Eos (3 h): 1%
- Fbg (3 h): 289.2 mg/dL
- Hb (3 h): 13.7 g/dL
- Ht (3 h): 42%
- Lym (3 h): 82.4%
- MCH (3 h): 20.7 pg
- MCHC (3 h): 32.7%
- MCV (3 h): 63.3 fL
- Mono (3 h): 2.2%
- Neu (3 h): 13.8%
- PT (3 h): 13.2 s
- Plat (3 h): 116 x10_4/uL
- RBC (3 h): 664 x10_4/ul
- Ret (3 h): 8%
- WBC (3 h): 88.8 x10_2/uL
- KIDNEY_L (3 h): 0.9 g
- KIDNEY_R (3 h): 0.9 g
- KIDNEY_TOTAL (3 h): 1.7 g
- LIVER (3 h): 8.2 g
- A/G (3 h): 0.9
- ALP (3 h): 1484.6 IU/L
- ALT (3 h): 38 IU/L
- AST (3 h): 73.6 IU/L
- BUN (3 h): 10.6 mg/dL
- CRE (3 h): 0.2 mg/dL
- Ca (3 h): 11 mg/dL
- Cl (3 h): 104.4 meq/L
- DBIL (3 h): 0.004 mg/dL
- GLC (3 h): 166.2 mg/dL
- IP (3 h): 10 mg/dL
- K (3 h): 4 meq/L
- LDH (3 h): 62.6 IU/L
- Na (3 h): 141.4 meq/L
- PL (3 h): 131.4 mg/dL
- RALB (3 h): 2.5 g/dL
- TBIL (3 h): 0.054 mg/dL
- TC (3 h): 71.4 mg/dL
- TG (3 h): 45.2 mg/dL
- TP (3 h): 5.2 g/dL
- gamma-GTP (3 h): 1 IU/L
- TERMINAL_BW (6 h): 198.5 g
- APTT (6 h): 17.1 s
- Bas (6 h): 0%
- Eos (6 h): 1%
- Fbg (6 h): 266.4 mg/dL
- Hb (6 h): 13.3 g/dL
- Ht (6 h): 41.1%
- Lym (6 h): 74.8%
- MCH (6 h): 20.9 pg
- MCHC (6 h): 32.5%
- MCV (6 h): 64.2 fL
- Mono (6 h): 3%
- Neu (6 h): 20.2%
- PT (6 h): 13.5 s
- Plat (6 h): 118.8 x10_4/uL
- RBC (6 h): 640.4 x10_4/ul
- Ret (6 h): 8.2%
- WBC (6 h): 81.7 x10_2/uL
- KIDNEY_L (6 h): 0.9 g
- KIDNEY_R (6 h): 0.9 g
- KIDNEY_TOTAL (6 h): 1.8 g
- LIVER (6 h): 7.8 g
- A/G (6 h): 0.9
- ALP (6 h): 1359.2 IU/L
- ALT (6 h): 34.4 IU/L
- AST (6 h): 73.8 IU/L
- BUN (6 h): 9.4 mg/dL
- CRE (6 h): 0.2 mg/dL
- Ca (6 h): 10.6 mg/dL
- Cl (6 h): 104 meq/L
- DBIL (6 h): 0.004 mg/dL
- GLC (6 h): 167.2 mg/dL
- IP (6 h): 10 mg/dL
- K (6 h): 4 meq/L
- LDH (6 h): 61.6 IU/L
- Na (6 h): 140.4 meq/L
- PL (6 h): 128.8 mg/dL
- RALB (6 h): 2.4 g/dL
- TBIL (6 h): 0.066 mg/dL
- TC (6 h): 72.2 mg/dL
- TG (6 h): 35.4 mg/dL
- TP (6 h): 5 g/dL
- gamma-GTP (6 h): 1 IU/L
- TERMINAL_BW (9 h): 195.6 g
- APTT (9 h): 17 s
- Bas (9 h): 0.4%
- Eos (9 h): 0.8%
- Fbg (9 h): 306 mg/dL
- Hb (9 h): 13.6 g/dL
- Ht (9 h): 41.9%
- Lym (9 h): 78.2%
- MCH (9 h): 20.8 pg
- MCHC (9 h): 32.3%
- MCV (9 h): 64.2 fL
- Mono (9 h): 2.2%
- Neu (9 h): 18%
- PT (9 h): 13.4 s
- Plat (9 h): 117.8 x10_4/uL
- RBC (9 h): 654.4 x10_4/ul
- Ret (9 h): 7.9%
- WBC (9 h): 87.1 x10_2/uL
- KIDNEY_L (9 h): 0.9 g
- KIDNEY_R (9 h): 0.9 g
- KIDNEY_TOTAL (9 h): 1.8 g
- LIVER (9 h): 7.4 g
- A/G (9 h): 0.9
- ALP (9 h): 1457.4 IU/L
- ALT (9 h): 36 IU/L
- AST (9 h): 75.8 IU/L
- BUN (9 h): 8.8 mg/dL
- CRE (9 h): 0.2 mg/dL
- Ca (9 h): 10.6 mg/dL
- Cl (9 h): 105.2 meq/L
- DBIL (9 h): 0.002 mg/dL
- GLC (9 h): 168.8 mg/dL
- IP (9 h): 10.1 mg/dL
- K (9 h): 3.8 meq/L
- LDH (9 h): 67.2 IU/L
- Na (9 h): 142 meq/L
- PL (9 h): 119 mg/dL
- RALB (9 h): 2.5 g/dL
- TBIL (9 h): 0.064 mg/dL
- TC (9 h): 70.8 mg/dL
- TG (9 h): 24 mg/dL
- TP (9 h): 5.3 g/dL
- gamma-GTP (9 h): 1.2 IU/L
- TERMINAL_BW (24 h): 212.7 g
- APTT (24 h): 18.7 s
- Bas (24 h): 0%
- Eos (24 h): 1.2%
- Fbg (24 h): 291.4 mg/dL
- Hb (24 h): 13.4 g/dL
- Ht (24 h): 40.9%
- Lym (24 h): 72.2%
- MCH (24 h): 20.9 pg
- MCHC (24 h): 32.6%
- MCV (24 h): 64.1 fL
- Mono (24 h): 2.8%
- Neu (24 h): 23%
- PT (24 h): 13 s
- Plat (24 h): 118.2 x10_4/uL
- RBC (24 h): 638.4 x10_4/ul
- Ret (24 h): 7.9%
- WBC (24 h): 103.5 x10_2/uL
- KIDNEY_L (24 h): 0.9 g
- KIDNEY_R (24 h): 0.9 g
- KIDNEY_TOTAL (24 h): 1.8 g
- LIVER (24 h): 9.8 g
- A/G (24 h): 0.9
- ALP (24 h): 1691 IU/L
- ALT (24 h): 44.4 IU/L
- AST (24 h): 75.4 IU/L
- BUN (24 h): 14.6 mg/dL
- CRE (24 h): 0.2 mg/dL
- Ca (24 h): 10.7 mg/dL
- Cl (24 h): 105.6 meq/L
- DBIL (24 h): 0.01 mg/dL
- GLC (24 h): 173.4 mg/dL
- IP (24 h): 7.9 mg/dL
- K (24 h): 4 meq/L
- LDH (24 h): 66.2 IU/L
- Na (24 h): 142.8 meq/L
- PL (24 h): 132.6 mg/dL
- RALB (24 h): 2.6 g/dL
- TBIL (24 h): 0.06 mg/dL
- TC (24 h): 72.2 mg/dL
- TG (24 h): 70.8 mg/dL
- TP (24 h): 5.5 g/dL
- gamma-GTP (24 h): 1 IU/L
